This assay concerns the target T1, hTRPV3 (Homo sapiens, UniProt Q8NET8).
T1 construct: expressed in transfected cells; host or cells: HEK-293
T1 sequence (Q8NET8 1-790): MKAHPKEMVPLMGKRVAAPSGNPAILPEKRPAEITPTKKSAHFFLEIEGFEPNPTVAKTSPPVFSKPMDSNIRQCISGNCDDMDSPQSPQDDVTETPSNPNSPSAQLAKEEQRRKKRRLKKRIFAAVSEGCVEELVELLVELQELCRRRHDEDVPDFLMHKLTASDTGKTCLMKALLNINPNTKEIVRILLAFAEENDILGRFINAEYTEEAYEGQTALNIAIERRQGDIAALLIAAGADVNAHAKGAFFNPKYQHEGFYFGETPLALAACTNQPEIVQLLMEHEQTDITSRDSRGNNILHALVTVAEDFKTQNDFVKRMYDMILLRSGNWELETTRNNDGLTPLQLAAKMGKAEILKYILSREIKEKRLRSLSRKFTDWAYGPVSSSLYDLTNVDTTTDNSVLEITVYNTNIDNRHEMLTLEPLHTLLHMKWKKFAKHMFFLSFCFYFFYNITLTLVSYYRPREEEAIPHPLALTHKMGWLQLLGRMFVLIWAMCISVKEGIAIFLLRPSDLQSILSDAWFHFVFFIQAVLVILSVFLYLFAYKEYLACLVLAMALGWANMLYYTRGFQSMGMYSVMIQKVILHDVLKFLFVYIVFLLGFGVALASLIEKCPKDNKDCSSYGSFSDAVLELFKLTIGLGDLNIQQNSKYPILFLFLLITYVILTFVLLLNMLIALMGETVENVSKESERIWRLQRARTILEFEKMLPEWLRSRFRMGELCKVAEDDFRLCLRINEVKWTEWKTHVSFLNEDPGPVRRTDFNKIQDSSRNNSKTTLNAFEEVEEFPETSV
The experiment in a line: Whole cell patch clamp inhibition rate test on HEK-293 cells instantaneously expressing TRPV3. In kind it is cell-based. Particulars: HEK293; hTRPV3, single concentration 0.3 μM. Summed up: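 HEK-293 cells transiently transfected with TRPV3, recorded next-but-one day by whole-cell patch clamp at room temperature: holding −80 mV, ramp −100 to 100 mV over 100 ms every 5 s, peak current monitored. Ascending concentrations perfused, 5 min each; each cell its own control, at least two cells per concentration.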

Among the data in patent US20260174786A1, “A NITROGEN-CONTAINING SPIROCYCLIC COMPOUND, PHARMACEUTICAL COMPOSITION AND USE THEREOF” (Prime Gene Therapeutics Co., Ltd., priority 2022, published 2026) are inhibition values, retold here.

As to `O=C(c1ccc(Cl)cn1)N1CCC2(C1)OB(O)c1cc(-c3ccccc3C3CC3)ccc12` (stereo not drawn) [Example 10, (5-chloropyridin-2-yl)(6-(2-cyclopropylphenyl)-1-hydroxy-1H-spiro[benzo[c][1,2]oxaborolane-3,3′-pyrrolidine]-1′-yl) ketone], the inhibition at 0.3 µM is 25 to 50%.
Regarding `Cc1cccc(-c2ccc3c(c2)C(O)CC32CCN(C(=O)c3ccc(F)cn3)C2)c1C1CC1` (stereo not drawn) [Example 85, (5-(2-cyclopropyl-3-methylphenyl)-3-hydroxy-2,3-dihydrospiro[indene-1,3′-pyrrolidine]-1′-yl)(5-fluoropyridin-2-yl) ketone], the inhibition at 0.3 µM lay in the range of 70 to 100%.
Take `O=C(c1csc(Cl)n1)N1CC[C@@]2(C[C@H](O)c3cc(-c4ccccc4C4CC4)ccc32)C1` [Example 31, (2-chlorothiazol-4-yl)((1S,3S)-5-(2-cyclopropylphenyl)-3-hydroxy-2,3-dihydrospiro[indene-1,3′-pyrrolidine]-1′-yl)ketone]: the inhibition at 0.3 µM was less than 25%.
To `Cc1ncccc1-c1ccc2c(c1)C(O)CC21CCN(C(=O)c2ccc(F)cn2)C1` (stereo not drawn) [Example 91, (5-fluoropyridin-2-yl)(3-hydroxy-5-(2-methylpyridin-3-yl)-2,3-dihydrospiro[indene-1,3′-pyrrolidine]-1′-yl) ketone] belongs less than 25%; to `O=C(c1ccc(F)cn1)N1CCC2(C[C@H](O)c3cc(-c4ccccc4C4CC4)ccc32)C1` (stereo partly drawn) [Example 46, ((3S)-5-(2-cyclopropylphenyl)-3-hydroxy-2,3-dihydrospiro[indene-1,3′-pyrrolidine]-1′-yl)(5-fluoropyridin-2-yl) ketone], less than 25%.
To `CC(C)c1ccccc1-c1ccc2c(c1)C(C(=O)O)CC21CCN(C(=O)c2ccc(F)cn2)C1` (stereo not drawn) [Example 129, 1′-(5-fluoropyridoyl)-5-(2-isopropylphenyl)-2,3-dihydrospiro[indene-1,3′-pyrrolidine]-3-carboxylic acid] belongs less than 25%; to `O=C(c1ccc(F)c(Cl)n1)N1CCC2(CC(O)c3cc(-c4ccccc4C4CC4)ccc32)C1` (stereo not drawn) [Example 54, (6-chloro-5-fluoropyridin-2-yl)(5-(2-cyclopropylphenyl)-3-hydroxy-2,3-dihydrospiro[indene-1,3′-pyrrolidine]-1′-yl)ketone], 70 to 100%; to `CC(C)c1ccccc1-c1ccc2c(c1)C(O)CC21CCN(C(F)(F)c2ccc(F)cn2)C1` (stereo not drawn) [Example 146, 1′-(difluoro(5-fluoropyridin-2-yl)methyl)-5-(2-isopropylphenyl)-2,3-dihydrospiro[indene-1,3′-pyrrolidine]-3-ol], less than 25%.
For `CC(C)c1ccccc1-c1ccc2c(c1)[C@H](O)C[C@]21CCN(C(=O)c2ccc(F)cn2)C1` [Example 26], the inhibition at 0.3 µM is less than 25%.
Molecule `CC(C)c1ccccc1-c1ccc2c(c1)C(O)CC21CCN(C(=O)c2ccc(F)cn2)CC1` (stereo not drawn) [Example 4, (5-fluoropyridin-2-yl)(3-hydroxy-5-(2-isopropylphenyl)-2,3-dihydrospiro[indene-1,4′-piperidine]-1′-yl) ketone] gave an inhibition at 0.3 µM of 25 to 50%.
To `CC(C)c1ccccc1S(=O)(=O)c1ccc2c(c1)C(O)CC21CCN(C(=O)c2ccc(F)cn2)C1` (stereo not drawn) [Example 108, (5-fluoropyridin-2-yl)(3-hydroxy-5-((2-isopropylphenyl)sulfonyl)-2,3-dihydrospiro[indene-1,3′-pyrrolidine]-1′-yl) ketone] belongs less than 25%.
Take `COCc1cccc(C(=O)N2CCC3(CC(O)c4cc(-c5ccccc5C5CC5)ccc43)C2)n1` (stereo not drawn) [Example 47, (5-(2-cyclopropylphenyl)-3-hydroxy-2,3-dihydrospiro[indene-1,3′-pyrrolidine]-1′-yl)(6-(methoxymethyl)pyridin-2-yl) ketone]: the inhibition at 0.3 µM is less than 25%.
To `CC(C)c1ccccc1-c1ccc2c(c1)C(O)CC21CCN(C(=O)c2cc3cccn3cn2)C1` (stereo not drawn) [Example 76, (3-hydroxy-5-(2-isopropylphenyl)-2,3-dihydrospiro[indene-1,3′-pyrrolidine]-1′-yl)(pyrrolo[1,2-c]pyrimidin-3-yl)ketone] belongs 50 to 70%.
To `[2H]C1(O)CC2(CN(C(=O)c3ccc(F)cn3)C([2H])([2H])C2)c2ccc(-c3ccccc3C3CC3)cc21` (stereo not drawn) [Example 11, (5-(2-cyclopropylphenyl)-3-hydroxy-2,3-dihydrospiro[indene-1,3′-pyrrolidine]-1′-yl-3,5′,5′-d3)(5-fluoropyridin-2-yl) ketone] belongs 70 to 100%; to `CC(C)c1ccccc1-c1ccc2c(c1)C(O)CC21CCN(C(=O)c2ccccn2)C1` (stereo not drawn) [Example 60, (3-hydroxy-5-(2-isopropylphenyl)-2,3-dihydrospiro[indene-1,3′-pyrrolidine]-1′-yl)(pyridin-2-yl)ketone], 70 to 100%.
For `O=C(c1ccc(F)cn1)N1CC[C@]2(C[C@@H](O)c3cc(-c4ccccc4C4CC4)ccc32)C1` [Example 22, ((1R,3R)-5-(2-cyclopropylphenyl)-3-hydroxy-2,3-dihydrospiro[indene-1,3′-pyrrolidine]-1′-yl)(5-fluoropyridin-2-yl)ketone], the inhibition at 0.3 µM is less than 25%.
In turn, `OC1CC2(CCN(c3cnc4cc(Cl)ccn34)C2)c2ccc(-c3ccccc3C3CC3)cc21` (stereo not drawn) [Example 152, 5-(2-cyclopropylphenyl)-1′-(7-chloroimidazo[1,2-a]pyridin-3-yl)-2,3-dihydrospiro[indene-1,3′-pyrrolidine]-3-ol] showed an inhibition at 0.3 µM of 70 to 100%.
As for `CCc1ccccc1-c1ccc2c(c1)C(O)CC21CCN(C(=O)c2ccc(F)cn2)C1` (stereo not drawn) [Example 80, (5-(2-ethylphenyl)-3-hydroxy-2,3-dihydrospiro[indene-1,3′-pyrrolidine]-1′-yl)(5-fluoropyridin-2-yl) ketone], the inhibition at 0.3 µM lay in the range of 70 to 100%.
To `CC(C)c1ccccc1-c1ccc2c(c1)[C@H](O)C[C@@]21CCN(C(=O)c2csc(Cl)n2)C1` [Example 33, (2-chlorothiazol-4-yl)((1S,3R)-3-hydroxy-5-(2-isopropylphenyl)-2,3-dihydrospiro[indene-1,3′-pyrrolidine]-1′-yl)ketone] belongs 70 to 100%.
Turning to `O=C(c1csc(Cl)n1)N1CC[C@]2(C[C@H](O)c3cc(-c4ccccc4C4CC4)ccc32)C1` [Example 32, (2-chlorothiazol-4-yl)((1R,3S)-5-(2-cyclopropylphenyl)-3-hydroxy-2,3-dihydrospiro[indene-1,3′-pyrrolidine]-1′-yl)ketone], the inhibition at 0.3 µM was less than 25%.
With `O=C(c1ccc(F)cn1)N1CCC2(C[C@@H](O)c3cc(-c4ccccc4C4CC4)ccc32)C1` (stereo partly drawn) [Example 45, ((3R)-5-(2-cyclopropylphenyl)-3-hydroxy-2,3-dihydrospiro[indene-1,3′-pyrrolidine]-1′-yl)(5-fluoropyridin-2-yl) ketone], the inhibition at 0.3 µM was 70 to 100%.
Regarding `CC(C)c1ccccc1Sc1ccc2c(c1)C(O)CC21CCN(C(=O)c2ccc(F)cn2)C1` (stereo not drawn) [Example 106, (5-fluoropyridin-2-yl)(3-hydroxy-5-((2-isopropylphenyl)thio)-2,3-dihydrospiro[indene-1,3′-pyrrolidine]-1′-yl) ketone], the inhibition at 0.3 µM was 70 to 100%.
In turn, `CC(C)c1ccccc1-c1ccc2c(c1)C(O)CC21CCN(C(=O)c2ccc(Cl)cn2)C1` (stereo not drawn) [Example 58, (5-chloropyridin-2-yl)(3-hydroxy-5-(2-isopropylphenyl)-2,3-dihydrospiro[indene-1,3′-pyrrolidine]-1′-yl)ketone] came in with an inhibition at 0.3 µM of 70 to 100%.
The molecule `COc1ncnc(OC)c1C(=O)N1CCC2(CC(O)c3cc(-c4ccccc4C4CC4)ccc32)C1` (stereo not drawn) [Example 56, (5-(2-cyclopropylphenyl)-3-hydroxy-2,3-dihydrospiro[indene-1,3′-pyrrolidine]-1′-yl)(4,6-dimethoxypyrimidin-5-yl)ketone] returned an inhibition at 0.3 µM of less than 25%.
To `CC(C)c1ccccc1[S+]([O-])c1ccc2c(c1)C(O)CC21CCN(C(=O)c2ccc(F)cn2)C1` (stereo not drawn) [Example 107, (5-fluoropyridin-2-yl)(3-hydroxy-5-((2-isopropylphenyl)sulfoxide)-2,3-dihydrospiro[indene-1,3′-pyrrolidine]-1′-yl) ketone] belongs less than 25%; to `O=C1C[C@@]2(CCN(C(=O)c3ccc(F)cn3)C2)c2ccc(-c3ccccc3C3CC3)cc21` [Example 162, (S)-5-(2-cyclopropylphenyl)-1′-(5-fluoropyridoyl)spiro[indene-1,3′-pyrrolidine]-3(2H)-one], less than 25%; to `O=C(c1ccc(F)cn1)N1CCC2(CC(O)c3cc(-c4ccccc4OC(F)(F)F)ccc32)C1` (stereo not drawn) [Example 82, (5-fluoropyridin-2-yl)(3-hydroxy-5-(2-(trifluoromethoxy)phenyl)-2,3-dihydrospiro[indene-1,3′-pyrrolidine]-1′-yl) ketone], 50 to 70%.

As a reminder, the inhibition is the relative decrease from the control value, in per cent. Read a high inhibition as a response far below the control.
